BindingDB's records for patent US9796706 (Imago Pharmaceuticals, 2017)

How the values were obtained:
Assay in all cases: HTRF Assay
[1] = target: Mitogen-activated protein kinase 10 (Homo sapiens, UniProt P53779)
Description: (§1) The aJNK solution (20 μl/well) was added to the plate and the plate was shaken. The enzyme was incubated with the compound at RT for 10 min.(5) ATP/substrate solution preparation: ATP and substrate stocks were thawed on ice. […] The ATP/substrate (20 μl/well) was added to the plate and the plate was shaken. The plate was incubated at RT for 15 min. Note: In an exemplary assay, the final ATP concentration was about 1 mM.(6) EDTA preparation: 30 mM EDTA was prepared using 0.5M EDTA stock and assay buffer #1. The EDTA (10 μl/well) was added to the plate to quench the enzyme reaction and the plate was shaken well.(7) Detection reagent preparation: Eu-63 and SA-XL stocks were thawed on ice. […] The Eu-63/SA-XL solution (20 μl/well) was added to the plate and the plate was shaken. The plate was incubated at RT for 1 hr before reading the plate on LJL using ratiometric method named HTRF.

[2] = target: Mitogen-activated protein kinase 8 (Homo sapiens, UniProt P45983)
Chain of Mitogen-activated protein kinase 8 (P45983 whole entry): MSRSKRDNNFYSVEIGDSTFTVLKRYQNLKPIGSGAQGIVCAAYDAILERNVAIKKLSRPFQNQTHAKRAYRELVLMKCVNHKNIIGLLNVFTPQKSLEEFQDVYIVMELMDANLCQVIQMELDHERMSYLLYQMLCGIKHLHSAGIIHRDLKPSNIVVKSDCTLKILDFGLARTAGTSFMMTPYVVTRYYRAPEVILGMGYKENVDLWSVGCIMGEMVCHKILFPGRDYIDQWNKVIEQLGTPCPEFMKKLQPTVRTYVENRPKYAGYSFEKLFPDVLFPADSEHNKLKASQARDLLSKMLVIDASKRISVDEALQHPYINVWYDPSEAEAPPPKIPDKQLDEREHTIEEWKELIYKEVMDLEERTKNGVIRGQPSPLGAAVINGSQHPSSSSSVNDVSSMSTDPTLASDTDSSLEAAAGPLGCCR
Description: as §1

[3] = target: Mitogen-activated protein kinase 9 (Homo sapiens, UniProt P45984)
Chain of Mitogen-activated protein kinase 9 (P45984 whole entry): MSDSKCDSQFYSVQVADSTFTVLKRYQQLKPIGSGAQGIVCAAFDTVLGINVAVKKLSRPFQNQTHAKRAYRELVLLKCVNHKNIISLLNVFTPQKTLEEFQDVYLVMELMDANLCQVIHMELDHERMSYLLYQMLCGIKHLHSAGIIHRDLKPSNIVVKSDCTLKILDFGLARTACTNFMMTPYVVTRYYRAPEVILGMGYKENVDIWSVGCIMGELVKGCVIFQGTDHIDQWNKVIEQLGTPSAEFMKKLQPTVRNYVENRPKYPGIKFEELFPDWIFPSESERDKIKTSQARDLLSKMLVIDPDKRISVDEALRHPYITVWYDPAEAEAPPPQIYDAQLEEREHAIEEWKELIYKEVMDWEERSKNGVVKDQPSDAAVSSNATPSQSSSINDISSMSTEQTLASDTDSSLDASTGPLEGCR
Description: as §1

Chain of Mitogen-activated protein kinase 10 (P53779 whole entry): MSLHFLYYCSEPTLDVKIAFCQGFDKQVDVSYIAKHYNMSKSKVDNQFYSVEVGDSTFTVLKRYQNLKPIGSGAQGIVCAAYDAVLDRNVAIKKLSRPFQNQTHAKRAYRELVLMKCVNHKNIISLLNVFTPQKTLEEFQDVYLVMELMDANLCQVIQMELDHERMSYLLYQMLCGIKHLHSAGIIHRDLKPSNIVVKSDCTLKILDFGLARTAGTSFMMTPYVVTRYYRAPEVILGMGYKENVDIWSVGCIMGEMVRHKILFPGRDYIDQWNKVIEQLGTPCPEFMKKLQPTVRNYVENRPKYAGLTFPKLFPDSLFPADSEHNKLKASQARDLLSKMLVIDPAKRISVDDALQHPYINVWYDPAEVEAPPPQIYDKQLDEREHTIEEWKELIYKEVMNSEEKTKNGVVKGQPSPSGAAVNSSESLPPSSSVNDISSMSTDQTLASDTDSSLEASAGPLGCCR

| IC50 [1] | IC50 [2] | IC50 [3] | Compound |
| --- | --- | --- | --- |
| in the range around 5.05 µM | in the range around 5.05 µM | in the range around 5.05 µM | CN(C)CCN(C(=O)Cn1c(=O)ccc2cc(C(F)(F)F)ccc21)c1scc(Cl)c1-c1nc[nH]n1 [US9796706, Compound 158] |
| in the range around 5.05 µM | in the range around 5.05 µM | in the range around 5.05 µM | O=C(Cn1c(=O)ccc2cc(C(F)(F)F)ccc21)N(CCCN1CCCC1)c1scc(Cl)c1-c1nc[nH]n1 [US9796706, Compound 162] |
